“Also recorded” adds a separate entry of the source.
Assay: Immediate release of calcium ion of various salts by a calcium test kit by EM Quant
Assay type: physicochemical
Settings: contact with water

Compound: Calcium ascorbate [Calcium ascorbate (citrate)]
- Immediate release of calcium ion (availability of calcium ion): most readily available calcium ion source; also recorded: provided calcium ions on contact with water

Compound: CC(O)C(=O)[O-].CC(O)C(=O)[O-].O.O.O.O.O.[Ca+2] (centres unmarked) [Calcium lactate pentahydrate]
- Immediate release of calcium ion (availability of calcium ion): most readily available calcium ion source

— patent US10638959B2, “Oral pH and buffering capacity modifiers” (CAO Group, LLC, priority 2010, dated 2020)
